According to ChEMBL document CHEMBL5724914, “Linking interpersonal differences in gut microbiota composition and drug biotransformation activity” (2024):
Also: call rule not given here.

Experiment: (§1) The drug is tested on WLS-039 corresponding to human gut metagenome with ENA study accession number: PRJEB37062 and ENA sample accession number: ERS12561746 for biotransformation under anaerobic condition. The drug concentrations were measured over 9 timepoints collected between 0 and 24 hours of incubation by liquid-chromatography-coupled mass spectrometry (LC–MS)
Conditions: 2 µM
With `CCOC(=O)C1=C[C@]2(CC)CCCN3CCc4c(n1c1ccccc41)[C@@H]32` [VINPOCETINE] the “Bacterial Biotransformation” value was “Compound NOT metabolized”.
For `C[C@@H](c1ncncc1F)[C@](O)(Cn1cncn1)c1ccc(F)cc1F` [VORICONAZOLE], the “Bacterial Biotransformation” value was “Compound metabolized”.
For `CCN(C(C)=O)c1cccc(-c2ccnc3c(C#N)cnn23)c1` [ZALEPLON], the “Bacterial Biotransformation” value was “Compound metabolized”.

Conditions: human gut metagenome, 24 h, 2 µM
In the case of `CCOC(=O)C1=C[C@]2(CC)CCCN3CCc4c(n1c1ccccc41)[C@@H]32` [VINPOCETINE], the “Bacterial Biotransformation” value is reported as “Compound metabolized”.
In the case of `C[C@@H](c1ncncc1F)[C@](O)(Cn1cncn1)c1ccc(F)cc1F` [VORICONAZOLE], the “Bacterial Biotransformation” value is reported as “Compound metabolized”.
With `CCN(C(C)=O)c1cccc(-c2ccnc3c(C#N)cnn23)c1` [ZALEPLON] the “Bacterial Biotransformation” value was “Compound metabolized”.

Conditions: human gut metagenome, 24 h, 2 µM
Remark: another data set of the same source
For `CCOC(=O)C1=C[C@]2(CC)CCCN3CCc4c(n1c1ccccc41)[C@@H]32` [VINPOCETINE], the “Bacterial Biotransformation” value was “Compound NOT metabolized”.
For `C[C@@H](c1ncncc1F)[C@](O)(Cn1cncn1)c1ccc(F)cc1F` [VORICONAZOLE], the “Bacterial Biotransformation” value was “Compound metabolized”.
With `CCN(C(C)=O)c1cccc(-c2ccnc3c(C#N)cnn23)c1` [ZALEPLON] the “Bacterial Biotransformation” value was “Compound metabolized”.

Experiment: as §1, with “WLS-170” for “WLS-039”, “ERS12561762” for “ERS12561746”
Conditions: 2 µM
With `CCOC(=O)C1=C[C@]2(CC)CCCN3CCc4c(n1c1ccccc41)[C@@H]32` [VINPOCETINE] the “Bacterial Biotransformation” value was “Compound metabolized”.
For `C[C@@H](c1ncncc1F)[C@](O)(Cn1cncn1)c1ccc(F)cc1F` [VORICONAZOLE], the “Bacterial Biotransformation” value was “Compound metabolized”.
In the case of `CCN(C(C)=O)c1cccc(-c2ccnc3c(C#N)cnn23)c1` [ZALEPLON], the “Bacterial Biotransformation” value is reported as “Compound metabolized”.

Experiment: as §1, with “Z-014” for “WLS-039”, “rat” for “human”, “ERS12561814” for “ERS12561746”
Conditions: 2 µM
In the case of `CCOC(=O)C1=C[C@]2(CC)CCCN3CCc4c(n1c1ccccc41)[C@@H]32` [VINPOCETINE], the “Bacterial Biotransformation” value is reported as “Compound NOT metabolized”.
With `C[C@@H](c1ncncc1F)[C@](O)(Cn1cncn1)c1ccc(F)cc1F` [VORICONAZOLE] the “Bacterial Biotransformation” value was “Compound NOT metabolized”.
With `CCN(C(C)=O)c1cccc(-c2ccnc3c(C#N)cnn23)c1` [ZALEPLON] the “Bacterial Biotransformation” value was “Compound NOT metabolized”.

Experiment: as §1, with “Z-010” for “WLS-039”, “to” for “to human gut”, “ERS12561810” for “ERS12561746”
Conditions: 2 µM
For `CCOC(=O)C1=C[C@]2(CC)CCCN3CCc4c(n1c1ccccc41)[C@@H]32` [VINPOCETINE], the “Bacterial Biotransformation” value was “Compound metabolized”.
For `C[C@@H](c1ncncc1F)[C@](O)(Cn1cncn1)c1ccc(F)cc1F` [VORICONAZOLE], the “Bacterial Biotransformation” value was “Compound metabolized”.
In the case of `CCN(C(C)=O)c1cccc(-c2ccnc3c(C#N)cnn23)c1` [ZALEPLON], the “Bacterial Biotransformation” value is reported as “Compound metabolized”.

Conditions: human gut metagenome, 24 h, 2 µM
Remark: another data set of the same source
For `CCOC(=O)C1=C[C@]2(CC)CCCN3CCc4c(n1c1ccccc41)[C@@H]32` [VINPOCETINE], the “Bacterial Biotransformation” value was “Compound NOT metabolized”.
For `C[C@@H](c1ncncc1F)[C@](O)(Cn1cncn1)c1ccc(F)cc1F` [VORICONAZOLE], the “Bacterial Biotransformation” value was “Compound metabolized”.
For `CCN(C(C)=O)c1cccc(-c2ccnc3c(C#N)cnn23)c1` [ZALEPLON], the “Bacterial Biotransformation” value was “Compound NOT metabolized”.

Experiment: as §1, with “WLS-027” for “WLS-039”, “ERS12561744” for “ERS12561746”
Conditions: 2 µM
In the case of `CCOC(=O)C1=C[C@]2(CC)CCCN3CCc4c(n1c1ccccc41)[C@@H]32` [VINPOCETINE], the “Bacterial Biotransformation” value is reported as “Compound metabolized”.
In the case of `C[C@@H](c1ncncc1F)[C@](O)(Cn1cncn1)c1ccc(F)cc1F` [VORICONAZOLE], the “Bacterial Biotransformation” value is reported as “Compound metabolized”.
In the case of `CCN(C(C)=O)c1cccc(-c2ccnc3c(C#N)cnn23)c1` [ZALEPLON], the “Bacterial Biotransformation” value is reported as “Compound metabolized”.

Experiment: as §1, with “Z-021” for “WLS-039”, “to” for “to human gut”, “ERS12561820” for “ERS12561746”
Conditions: 2 µM
In the case of `CCOC(=O)C1=C[C@]2(CC)CCCN3CCc4c(n1c1ccccc41)[C@@H]32` [VINPOCETINE], the “Bacterial Biotransformation” value is reported as “Compound NOT metabolized”.
With `C[C@@H](c1ncncc1F)[C@](O)(Cn1cncn1)c1ccc(F)cc1F` [VORICONAZOLE] the “Bacterial Biotransformation” value was “Compound NOT metabolized”.
For `CCN(C(C)=O)c1cccc(-c2ccnc3c(C#N)cnn23)c1` [ZALEPLON], the “Bacterial Biotransformation” value was “Compound NOT metabolized”.

Experiment: as §1, with “Z-019” for “WLS-039”, “rat” for “human”, “ERS12561818” for “ERS12561746”
Conditions: 2 µM
For `CCOC(=O)C1=C[C@]2(CC)CCCN3CCc4c(n1c1ccccc41)[C@@H]32` [VINPOCETINE], the “Bacterial Biotransformation” value was “Compound NOT metabolized”.
For `C[C@@H](c1ncncc1F)[C@](O)(Cn1cncn1)c1ccc(F)cc1F` [VORICONAZOLE], the “Bacterial Biotransformation” value was “Compound NOT metabolized”.
For `CCN(C(C)=O)c1cccc(-c2ccnc3c(C#N)cnn23)c1` [ZALEPLON], the “Bacterial Biotransformation” value was “Compound NOT metabolized”.

Experiment: as §1, with “WLS-090” for “WLS-039”, “ERS12561753” for “ERS12561746”
Conditions: 2 µM
In the case of `CCOC(=O)C1=C[C@]2(CC)CCCN3CCc4c(n1c1ccccc41)[C@@H]32` [VINPOCETINE], the “Bacterial Biotransformation” value is reported as “Compound metabolized”.
In the case of `C[C@@H](c1ncncc1F)[C@](O)(Cn1cncn1)c1ccc(F)cc1F` [VORICONAZOLE], the “Bacterial Biotransformation” value is reported as “Compound metabolized”.
For `CCN(C(C)=O)c1cccc(-c2ccnc3c(C#N)cnn23)c1` [ZALEPLON], the “Bacterial Biotransformation” value was “Compound metabolized”.

Experiment: as §1, with “Z-001” for “WLS-039”, “mouse” for “human”, “ERS12561801” for “ERS12561746”
Conditions: 2 µM
For `CCOC(=O)C1=C[C@]2(CC)CCCN3CCc4c(n1c1ccccc41)[C@@H]32` [VINPOCETINE], the “Bacterial Biotransformation” value was “Compound NOT metabolized”.
In the case of `C[C@@H](c1ncncc1F)[C@](O)(Cn1cncn1)c1ccc(F)cc1F` [VORICONAZOLE], the “Bacterial Biotransformation” value is reported as “Compound NOT metabolized”.
For `CCN(C(C)=O)c1cccc(-c2ccnc3c(C#N)cnn23)c1` [ZALEPLON], the “Bacterial Biotransformation” value was “Compound NOT metabolized”.

Conditions: human gut metagenome, 24 h, 2 µM
Remark: another data set of the same source
For `CCOC(=O)C1=C[C@]2(CC)CCCN3CCc4c(n1c1ccccc41)[C@@H]32` [VINPOCETINE], the “Bacterial Biotransformation” value was “Compound NOT metabolized”.
For `C[C@@H](c1ncncc1F)[C@](O)(Cn1cncn1)c1ccc(F)cc1F` [VORICONAZOLE], the “Bacterial Biotransformation” value was “Compound metabolized”.
With `CCN(C(C)=O)c1cccc(-c2ccnc3c(C#N)cnn23)c1` [ZALEPLON] the “Bacterial Biotransformation” value was “Compound metabolized”.

Conditions: human gut metagenome, 24 h, 2 µM
Remark: another data set of the same source
In the case of `CCOC(=O)C1=C[C@]2(CC)CCCN3CCc4c(n1c1ccccc41)[C@@H]32` [VINPOCETINE], the “Bacterial Biotransformation” value is reported as “Compound metabolized”.
For `C[C@@H](c1ncncc1F)[C@](O)(Cn1cncn1)c1ccc(F)cc1F` [VORICONAZOLE], the “Bacterial Biotransformation” value was “Compound metabolized”.
For `CCN(C(C)=O)c1cccc(-c2ccnc3c(C#N)cnn23)c1` [ZALEPLON], the “Bacterial Biotransformation” value was “Compound metabolized”.

Experiment: as §1, with “Z-017” for “WLS-039”, “mouse” for “human”, “ERS12561816” for “ERS12561746”
Conditions: 2 µM
With `CCOC(=O)C1=C[C@]2(CC)CCCN3CCc4c(n1c1ccccc41)[C@@H]32` [VINPOCETINE] the “Bacterial Biotransformation” value was “Compound NOT metabolized”.
In the case of `C[C@@H](c1ncncc1F)[C@](O)(Cn1cncn1)c1ccc(F)cc1F` [VORICONAZOLE], the “Bacterial Biotransformation” value is reported as “Compound NOT metabolized”.
In the case of `CCN(C(C)=O)c1cccc(-c2ccnc3c(C#N)cnn23)c1` [ZALEPLON], the “Bacterial Biotransformation” value is reported as “Compound NOT metabolized”.

Experiment: as §1, with “WLS-086” for “WLS-039”, “ERS12561752” for “ERS12561746”
Conditions: 2 µM
For `CCOC(=O)C1=C[C@]2(CC)CCCN3CCc4c(n1c1ccccc41)[C@@H]32` [VINPOCETINE], the “Bacterial Biotransformation” value was “Compound metabolized”.
For `C[C@@H](c1ncncc1F)[C@](O)(Cn1cncn1)c1ccc(F)cc1F` [VORICONAZOLE], the “Bacterial Biotransformation” value was “Compound metabolized”.
In the case of `CCN(C(C)=O)c1cccc(-c2ccnc3c(C#N)cnn23)c1` [ZALEPLON], the “Bacterial Biotransformation” value is reported as “Compound metabolized”.

Experiment: as §1, with “Z-005” for “WLS-039”, “to” for “to human gut”, “ERS12561805” for “ERS12561746”
Conditions: 2 µM
In the case of `CCOC(=O)C1=C[C@]2(CC)CCCN3CCc4c(n1c1ccccc41)[C@@H]32` [VINPOCETINE], the “Bacterial Biotransformation” value is reported as “Compound NOT metabolized”.
In the case of `C[C@@H](c1ncncc1F)[C@](O)(Cn1cncn1)c1ccc(F)cc1F` [VORICONAZOLE], the “Bacterial Biotransformation” value is reported as “Compound metabolized”.
With `CCN(C(C)=O)c1cccc(-c2ccnc3c(C#N)cnn23)c1` [ZALEPLON] the “Bacterial Biotransformation” value was “Compound NOT metabolized”.

Experiment: as §1, with “WLS-082” for “WLS-039”, “ERS12561751” for “ERS12561746”
Conditions: 2 µM
For `CCOC(=O)C1=C[C@]2(CC)CCCN3CCc4c(n1c1ccccc41)[C@@H]32` [VINPOCETINE], the “Bacterial Biotransformation” value was “Compound metabolized”.
In the case of `C[C@@H](c1ncncc1F)[C@](O)(Cn1cncn1)c1ccc(F)cc1F` [VORICONAZOLE], the “Bacterial Biotransformation” value is reported as “Compound metabolized”.
In the case of `CCN(C(C)=O)c1cccc(-c2ccnc3c(C#N)cnn23)c1` [ZALEPLON], the “Bacterial Biotransformation” value is reported as “Compound metabolized”.

Conditions: human gut metagenome, 24 h, 2 µM
Remark: another data set of the same source
With `CCOC(=O)C1=C[C@]2(CC)CCCN3CCc4c(n1c1ccccc41)[C@@H]32` [VINPOCETINE] the “Bacterial Biotransformation” value was “Compound metabolized”.
With `C[C@@H](c1ncncc1F)[C@](O)(Cn1cncn1)c1ccc(F)cc1F` [VORICONAZOLE] the “Bacterial Biotransformation” value was “Compound metabolized”.
With `CCN(C(C)=O)c1cccc(-c2ccnc3c(C#N)cnn23)c1` [ZALEPLON] the “Bacterial Biotransformation” value was “Compound metabolized”.

Experiment: as §1, with “Z-018” for “WLS-039”, “pig” for “human”, “ERS12561817” for “ERS12561746”
Conditions: 2 µM
In the case of `CCOC(=O)C1=C[C@]2(CC)CCCN3CCc4c(n1c1ccccc41)[C@@H]32` [VINPOCETINE], the “Bacterial Biotransformation” value is reported as “Compound metabolized”.
In the case of `C[C@@H](c1ncncc1F)[C@](O)(Cn1cncn1)c1ccc(F)cc1F` [VORICONAZOLE], the “Bacterial Biotransformation” value is reported as “Compound metabolized”.
For `CCN(C(C)=O)c1cccc(-c2ccnc3c(C#N)cnn23)c1` [ZALEPLON], the “Bacterial Biotransformation” value was “Compound metabolized”.
